Data: ChEMBL document CHEMBL2380246, “Structure-activity relationships of hybrid annonaceous acetogenins: powerful growth inhibitory effects of their connecting groups between heterocycle and hydrophobic carbon chain bearing THF ring on human cancer cell lines” (2013)

Columns and labels:
Type in all cases: functional
DU-145 = assay: Growth inhibition of human DU145 cells after 48 hrs by sulforhodamine B assay; conditions: DU-145, 48 h
SF-295 = assay: Growth inhibition of human SF295 cells after 48 hrs by sulforhodamine B assay; conditions: SF-295, 48 h
MKN-74 = assay: Growth inhibition of human MKN74 cells after 48 hrs by sulforhodamine B assay; conditions: MKN-74, 48 h
SF-268 = assay: Growth inhibition of human SF268 cells after 48 hrs by sulforhodamine B assay; conditions: SF-268, 48 h
SF-539 = assay: Growth inhibition of human SF539 cells after 48 hrs by sulforhodamine B assay; conditions: SF-539, 48 h
PC-3 = assay: Growth inhibition of human PC3 cells after 48 hrs by sulforhodamine B assay; conditions: PC-3, 48 h
HCT-15 = assay: Growth inhibition of human HCT15 cells after 48 hrs by sulforhodamine B assay; conditions: HCT-15, 48 h
[1] = Growth inhibition of human MKN1 cells after 48 hrs by sulforhodamine B assay; conditions: MKN-1, 48 h
[2] = Growth inhibition of human HBC4 cells after 48 hrs by sulforhodamine B assay; conditions: HBC4, 48 h
St-4 = assay: Growth inhibition of human St-4 cells after 48 hrs by sulforhodamine B assay; conditions: St-4, 48 h
OVCAR-8 = assay: Growth inhibition of human OVCAR8 cells after 48 hrs by sulforhodamine B assay; conditions: OVCAR-8, 48 h
HT-29 = assay: Growth inhibition of human HT-29 cells after 48 hrs by sulforhodamine B assay; conditions: HT-29, 48 h
SNB-75 = assay: Growth inhibition of human SNB75 cells after 48 hrs by sulforhodamine B assay; conditions: SNB-75, 48 h
SK-OV-3 = assay: Growth inhibition of human SKOV3 cells after 48 hrs by sulforhodamine B assay; conditions: SK-OV-3, 48 h
A549 = assay: Growth inhibition of human A549 cells after 48 hrs by sulforhodamine B assay; conditions: A549, 48 h
ACHN = assay: Growth inhibition of human ACHN cells after 48 hrs by sulforhodamine B assay
MCF7 = assay: Growth inhibition of human MCF7 cells after 48 hrs by sulforhodamine B assay; conditions: MCF7, 48 h
[3] = Growth inhibition of human RXF631L cells after 48 hrs by sulforhodamine B assay; conditions: RXF 631, 48 h
OVCAR-4 = assay: Growth inhibition of human OVCAR4 cells after 48 hrs by sulforhodamine B assay; conditions: OVCAR-4, 48 h
[4] = Growth inhibition of human HBC5 cells after 48 hrs by sulforhodamine B assay; conditions: HBC5, 48 h
MDA-MB-231 = assay: Growth inhibition of human MDA-MB-231 cells after 48 hrs by sulforhodamine B assay; conditions: MDA-MB-231, 48 h
OVCAR-5 = assay: Growth inhibition of human OVCAR5 cells after 48 hrs by sulforhodamine B assay; conditions: OVCAR-5, 48 h
OVCAR-3 = assay: Growth inhibition of human OVCAR3 cells after 48 hrs by sulforhodamine B assay; conditions: OVCAR-3, 48 h
NCI-H460 = assay: Growth inhibition of human NCI-H460 cells after 48 hrs by sulforhodamine B assay; conditions: NCI-H460, 48 h
[5] = Growth inhibition of human HCC2998 cells after 48 hrs by sulforhodamine B assay; conditions: HCC 2998, 48 h
SNB-78 = assay: Growth inhibition of human SNB78 cells after 48 hrs by sulforhodamine B assay; conditions: SNB-78, 48 h
MKN-45 = assay: Growth inhibition of human MKN45 cells after 48 hrs by sulforhodamine B assay; conditions: MKN-45, 48 h
NCI-H522 = assay: Growth inhibition of human NCI-H522 cells after 48 hrs by sulforhodamine B assay; conditions: NCI-H522, 48 h
NCI-H23 = assay: Growth inhibition of human NCI-H23 cells after 48 hrs by sulforhodamine B assay; conditions: NCI-H23, 48 h
NCI-H226 = assay: Growth inhibition of human NCI-H226 cells after 48 hrs by sulforhodamine B assay; conditions: NCI-H226, 48 h
DMS-273 = assay: Growth inhibition of human DMS273 cells after 48 hrs by sulforhodamine B assay; conditions: DMS-273, 48 h
KM12 = assay: Growth inhibition of human KM12 cells after 48 hrs by sulforhodamine B assay; conditions: KM12, 48 h
U-251 = assay: Growth inhibition of human U251 cells after 48 hrs by sulforhodamine B assay; conditions: U-251, 48 h
MKN-7 = assay: Growth inhibition of human MKN7 cells after 48 hrs by sulforhodamine B assay; conditions: MKN-7, 48 h
MKN-28 = assay: Growth inhibition of human MKN28 cells after 48 hrs by sulforhodamine B assay; conditions: MKN-28, 48 h
DMS-114 = assay: Growth inhibition of human DMS114 cells after 48 hrs by sulforhodamine B assay; conditions: DMS-114, 48 h
LOX IMVI = assay: Growth inhibition of human LOXIMVI cells after 48 hrs by sulforhodamine B assay
HCT-116 = assay: Growth inhibition of human HCT116 cells after 48 hrs by sulforhodamine B assay; conditions: HCT-116, 48 h
[6] = Growth inhibition of human BSY1 cells after 48 hrs by sulforhodamine B assay; conditions: BSY-1, 48 h

GI50 (DU-145) [µM]	GI50 (MKN-74) [nM]	GI50 (PC-3) [nM]	GI50 (HCT-15) [µM]	GI50 (OVCAR-8) [µM]	GI50 (HT-29) [µM]	GI50 (SK-OV-3) [µM]	GI50 (A549) [µM]	GI50 (ACHN) [µM]	GI50 (MCF7) [µM]	GI50 (OVCAR-4) [µM]	Compound	GI50 (SF-295) [nM]	GI50 (SF-268) [µM]	GI50 (SF-539) [µM]	GI50 [1] [µM]	GI50 [2] [µM]	GI50 (St-4) [µM]	GI50 (SNB-75) [µM]	GI50 [3] [µM]	GI50 [4] [µM]	other results
> 100	3890	18200	> 100	30.9	> 100	> 100	12.9	24	3.24	22.9	CCCCCCCCCCCC[C@@H](O)[C@H]1CC[C@H]([C@H](O)CCCCCCCCCCNC(=O)c2ccnn2C)O1	10000	> 100	3.72	43.7	> 100	18.2	50.1	> 100	17	GI50 (MDA-MB-231): 8.51 µM; GI50 (OVCAR-5): > 100 µM; GI50 (OVCAR-3): 77.6 µM; GI50 (NCI-H460): 8.13 µM; GI50 [5]: > 100 µM; GI50 (SNB-78): > 100 µM; GI50 (MKN-45): 7.41 µM; GI50 (NCI-H522): 1410 nM; GI50 (NCI-H23): 52.5 nM; GI50 (NCI-H226): 40.7 µM; GI50 (DMS-273): 5.75 µM; GI50 (KM12): > 100 µM; GI50 (U-251): > 100 µM
12.9	1700	2190	10	6.03	8.13	15.8	8.51	11	5.01	10	CCCCCCCCCCCC[C@@H](O)[C@H]1CC[C@H]([C@H](O)CCCCCCCCCCN(C)C(=O)c2ccnn2C)O1	2000	15.1	12	5.5	10	6.76	15.8	11	3.09	GI50 (MKN-7): 51.3 nM; GI50 (MKN-28): 302 nM; GI50 (DMS-114): 34.7 nM; GI50 (LOX IMVI): 1410 nM; GI50 (HCT-116): 794 nM; GI50 (MDA-MB-231): 8.91 µM; GI50 (OVCAR-5): 14.1 µM; GI50 (OVCAR-3): 10 µM; GI50 (NCI-H460): 5.5 µM; GI50 [5]: 12 µM; GI50 (SNB-78): 12 µM; GI50 (MKN-45): 11 µM; GI50 (NCI-H522): 2290 nM; GI50 (NCI-H23): 240 nM; GI50 (NCI-H226): 9.77 µM; GI50 (DMS-273): 3.31 µM; GI50 [6]: 501 nM; GI50 (KM12): 4.17 µM; GI50 (U-251): 10 µM
4.37	1290	2290	2	1.58	3.02	2.09	8.71	3.09	1.7	1.58	CCCCCCCCCCCC[C@@H](O)[C@H]1CC[C@H]([C@H](O)CCCCCCCCCCNCc2ccnn2C)O1	1200	3.63	1.58	1.41	1.82	1.82	2	2.4	2.09	GI50 (MKN-7): 309 nM; GI50 (MKN-28): 501 nM; GI50 (DMS-114): 129 nM; GI50 (LOX IMVI): 1200 nM; GI50 (HCT-116): 1100 nM; GI50 (MDA-MB-231): 2.19 µM; GI50 (OVCAR-5): 3.09 µM; GI50 (OVCAR-3): 1.51 µM; GI50 (NCI-H460): 1.7 µM; GI50 [5]: 1.82 µM; GI50 (SNB-78): 2.09 µM; GI50 (MKN-45): 1.82 µM; GI50 (NCI-H522): 1290 nM; GI50 (NCI-H23): 646 nM; GI50 (NCI-H226): 3.31 µM; GI50 (DMS-273): 1.58 µM; GI50 [6]: 339 nM; GI50 (KM12): 1.41 µM; GI50 (U-251): 1.51 µM
